Converted amounts (≈) assume the structure as drawn.
Legend:
Type in all cases: functional
[1] = system: Staphylococcus epidermidis; experiment: Antibacterial activity against Staphylococcus epidermidis ATCC 12228
[2] = system: Streptococcus pneumoniae; experiment: Antibacterial activity against macrolide resistant Streptococcus pneumoniae ATCC 700906
[3] = system: Staphylococcus aureus; experiment: Antibacterial activity against macrolide resistant Staphylococcus aureus ATCC 33591
[4] = system: Streptococcus pneumoniae; experiment: Antibacterial activity against macrolide resistant Streptococcus pneumoniae ATCC 700677
[5] = system: Streptococcus pneumoniae; experiment: Antibacterial activity against macrolide resistant Streptococcus pneumoniae ATCC 700905
[6] = system: Staphylococcus aureus; experiment: Antibacterial activity against Staphylococcus aureus ATCC 6538p
[7] = system: Streptococcus pneumoniae; experiment: Antibacterial activity against Streptococcus pneumoniae ATCC 49619
[8] = system: Streptococcus pneumoniae; experiment: Antibacterial activity against Streptococcus pneumoniae ATCC 700671
[9] = system: Streptococcus pneumoniae; experiment: Antibacterial activity against Streptococcus pneumoniae ATCC 6301
[10] = system: Enterococcus faecalis; experiment: Antibacterial activity against Enterococcus faecalis ATCC 51575
[11] = system: Staphylococcus aureus; experiment: Antibacterial activity against macrolide resistant Staphylococcus aureus ATCC 141541
[12] = system: Staphylococcus aureus; experiment: Antibacterial activity against Staphylococcus aureus ATCC 29213
[13] = system: Staphylococcus aureus; experiment: Antibacterial activity against macrolide resistant Staphylococcus aureus ATCC BAA-39
[14] = system: Staphylococcus aureus; experiment: Antibacterial activity against macrolide resistant Staphylococcus aureus ATCC BAA-44
[15] = system: Streptococcus pneumoniae; experiment: Antibacterial activity against macrolide resistant Streptococcus pneumoniae ATCC 700676

Structure (SMILES)	MIC [1] [µg/mL]	MIC [2] [µg/mL]	MIC [3] [µg/mL]	MIC [4] [µg/mL]	MIC [5] [µg/mL]	MIC [6] [µg/mL]	MIC [7] [µg/mL]	MIC [8] [µg/mL]	MIC [9] [µg/mL]	MIC [10] [µg/mL]	MIC [11] [µg/mL]	MIC [12] [µg/mL]	MIC [13] [µg/mL]	MIC [14] [µg/mL]	MIC [15] [µg/mL]
CC[C@H]1OC(=O)C[C@@H](O)[C@H](C)[C@@H](O[C@@H]2O[C@H](C)[C@@H](O)[C@H](N(C)C)[C@H]2O)[C@@H](CC=O)C[C@@H](C)C(=N/OCCCCOc2ccc3ncccc3c2)/C=C/C(C)=C/C1CO (stereo not given in full)	0.2 (≈ 0.246 µM)	> 12.5	> 12.5	0.39 (≈ 0.48 µM)	0.025 (≈ 0.0308 µM)	0.2 (≈ 0.246 µM)	0.01 (≈ 0.0123 µM)	0.025 (≈ 0.0308 µM)	0.025 (≈ 0.0308 µM)	> 12.5	0.78 (≈ 0.961 µM)	0.78 (≈ 0.961 µM)	> 12.5	> 12.5	0.025 (≈ 0.0308 µM)
CC[C@H]1OC(=O)C[C@@H](O)[C@H](C)[C@@H](O[C@@H]2O[C@H](C)[C@@H](O)[C@H](N(C)C)[C@H]2O)[C@@H](CC=O)C[C@@H](C)C(=N/OCc2ccccc2)/C=C/C(C)=C/C1CO (stereo not given in full)	0.78 (≈ 1.11 µM)	> 12.5	> 12.5	1.56 (≈ 2.22 µM)	0.2 (≈ 0.285 µM)	0.39 (≈ 0.555 µM)	0.2 (≈ 0.285 µM)	0.2 (≈ 0.285 µM)	0.025 (≈ 0.0356 µM)	> 12.5	1.56 (≈ 2.22 µM)	1.56 (≈ 2.22 µM)	> 12.5	> 12.5	0.025 (≈ 0.0356 µM)
CC[C@H]1OC(=O)C[C@@H](O)[C@H](C)[C@@H](O[C@@H]2O[C@H](C)[C@@H](O)[C@H](N(C)C)[C@H]2O)[C@@H](CC=O)C[C@@H](C)C(=N/OC/C=C\c2cnc3ccccc3c2)/C=C/C(C)=C/C1CO (stereo not given in full)	0.39 (≈ 0.5 µM)	> 12.5	> 12.5	> 12.5	0.049 (≈ 0.0628 µM)	0.2 (≈ 0.256 µM)	0.025 (≈ 0.0321 µM)	0.025 (≈ 0.0321 µM)	0.025 (≈ 0.0321 µM)	> 12.5	0.78 (≈ 1 µM)	0.78 (≈ 1 µM)	> 12.5	> 12.5	0.049 (≈ 0.0628 µM)
CC[C@H]1OC(=O)C[C@@H](O)[C@H](C)[C@@H](O[C@@H]2O[C@H](C)[C@@H](O)[C@H](N(C)C)[C@H]2O)[C@@H](CC=O)C[C@@H](C)C(=N/OCC(=O)N2CCN(c3ccccc3)CC2)/C=C/C(C)=C/C1CO (stereo not given in full)	0.2 (≈ 0.245 µM)	> 12.5	> 12.5	6.25 (≈ 7.67 µM)	0.2 (≈ 0.245 µM)	0.78 (≈ 0.957 µM)	0.01 (≈ 0.0123 µM)	0.025 (≈ 0.0307 µM)	0.025 (≈ 0.0307 µM)	> 12.5	1.56 (≈ 1.91 µM)	1.56 (≈ 1.91 µM)	> 12.5	> 12.5	0.39 (≈ 0.479 µM)
CC[C@H]1OC(=O)C[C@@H](O)[C@H](C)[C@@H](O[C@@H]2O[C@H](C)[C@@H](O)[C@H](N(C)C)[C@H]2O)[C@@H](CC=O)C[C@@H](C)C(=N\OCC#Cc2cnc3ccccc3c2)/C=C/C(C)=C/C1CO (stereo not given in full)	0.2 (≈ 0.257 µM)	> 12.5	> 12.5	> 12.5	0.049 (≈ 0.063 µM)	0.098 (≈ 0.126 µM)	0.049 (≈ 0.063 µM)	0.049 (≈ 0.063 µM)	0.025 (≈ 0.0321 µM)	> 12.5	0.78 (≈ 1 µM)	0.39 (≈ 0.501 µM)	> 12.5	> 12.5	0.049 (≈ 0.063 µM)
CC[C@H]1OC(=O)C[C@@H](O)[C@H](C)[C@@H](O[C@@H]2O[C@H](C)[C@@H](O)[C@H](N(C)C)[C@H]2O)[C@@H](CC=O)C[C@@H](C)C(=N\OCCOc2ccccc2)/C=C/C(C)=C/C1CO (stereo not given in full)	1.56 (≈ 2.13 µM)	> 12.5	> 12.5	1.56 (≈ 2.13 µM)	0.78 (≈ 1.06 µM)	1.56 (≈ 2.13 µM)	0.2 (≈ 0.273 µM)	0.39 (≈ 0.532 µM)	0.098 (≈ 0.134 µM)	> 12.5	3.12 (≈ 4.26 µM)	3.12 (≈ 4.26 µM)	> 12.5	> 12.5	0.2 (≈ 0.273 µM)
CC[C@H]1OC(=O)C[C@@H](O)[C@H](C)[C@@H](O[C@@H]2O[C@H](C)[C@@H](O)[C@H](N(C)C)[C@@H]2O)[C@@H](CCN2CC(C)CC(C)C2)C[C@@H](C)C(=N\OCCCCc2ccc3ccccc3c2)/C=C/C(C)=C/C1CO (stereo not given in full)	> 12.5	> 12.5	> 12.5	> 12.5	12.5 (≈ 14 µM)	> 12.5	12.5 (≈ 14 µM)	12.5 (≈ 14 µM)	6.25 (≈ 7 µM)	> 12.5	> 12.5	> 12.5	> 12.5	> 12.5	> 12.5
CC[C@H]1OC(=O)C[C@@H](O)[C@H](C)[C@@H](O[C@@H]2O[C@H](C)[C@@H](O)[C@H](N(C)C)[C@H]2O)[C@@H](CC=O)C[C@@H](C)C(=N/OC/C=C\c2ccc3nccnc3c2)/C=C/C(C)=C/C1CO (stereo not given in full)	0.2 (≈ 0.256 µM)	> 12.5	> 12.5	> 12.5	0.049 (≈ 0.0627 µM)	0.2 (≈ 0.256 µM)	0.025 (≈ 0.032 µM)	0.049 (≈ 0.0627 µM)	0.025 (≈ 0.032 µM)	> 12.5	0.39 (≈ 0.499 µM)	0.39 (≈ 0.499 µM)	> 12.5	> 12.5	0.049 (≈ 0.0627 µM)
CC[C@H]1OC(=O)C[C@@H](O)[C@H](C)[C@@H](O[C@@H]2O[C@H](C)[C@@H](O)[C@H](N(C)C)[C@@H]2O)[C@@H](CCN2CC(C)CC(C)C2)C[C@@H](C)C(=N\OCCOc2ccccc2)/C=C/C(C)=C/C1CO (stereo not given in full)	6.25 (≈ 7.53 µM)	> 12.5	> 12.5	> 12.5	0.39 (≈ 0.47 µM)	0.78 (≈ 0.94 µM)	0.39 (≈ 0.47 µM)	0.39 (≈ 0.47 µM)	0.2 (≈ 0.241 µM)	> 12.5	6.25 (≈ 7.53 µM)	6.25 (≈ 7.53 µM)	> 12.5	> 12.5	0.78 (≈ 0.94 µM)
CC[C@H]1OC(=O)C[C@@H](O)[C@H](C)[C@@H](O[C@@H]2O[C@H](C)[C@@H](O)[C@H](N(C)C)[C@@H]2O)[C@@H](CCN2CC(C)CC(C)C2)C[C@@H](C)C(=N/OCCCc2ccc3ncccc3c2)/C=C/C(C)=C/C1CO (stereo not given in full)	> 12.5	> 12.5	> 12.5	> 12.5	> 12.5	12.5 (≈ 14.2 µM)	6.25 (≈ 7.11 µM)	6.25 (≈ 7.11 µM)	6.25 (≈ 7.11 µM)	> 12.5	> 12.5	> 12.5	> 12.5	> 12.5	> 12.5
CC[C@H]1OC(=O)C[C@@H](O)[C@H](C)[C@@H](O[C@@H]2O[C@H](C)[C@@H](O)[C@H](N(C)C)[C@@H]2O)[C@@H](CCN2CC(C)CC(C)C2)C[C@@H](C)C(=N\OCc2ccc(F)cc2)/C=C/C(C)=C/C1CO (stereo not given in full)	3.12 (≈ 3.81 µM)	> 12.5	> 12.5	> 12.5	0.39 (≈ 0.477 µM)	0.78 (≈ 0.953 µM)	0.39 (≈ 0.477 µM)	0.39 (≈ 0.477 µM)	0.39 (≈ 0.477 µM)	> 12.5	3.12 (≈ 3.81 µM)	3.12 (≈ 3.81 µM)	> 12.5	> 12.5	0.39 (≈ 0.477 µM)
CC[C@H]1OC(=O)C[C@@H](O)[C@H](C)[C@@H](O[C@@H]2O[C@H](C)[C@@H](O)[C@H](N(C)C)[C@H]2O)[C@@H](CC=O)C[C@@H](C)C(=N/OCCOc2ccccc2)/C=C/C(C)=C/C1CO (stereo not given in full)	0.2 (≈ 0.273 µM)	> 12.5	> 12.5	0.39 (≈ 0.532 µM)	0.025 (≈ 0.0341 µM)	0.098 (≈ 0.134 µM)	0.01 (≈ 0.0136 µM)	0.025 (≈ 0.0341 µM)	0.025 (≈ 0.0341 µM)	> 12.5	0.39 (≈ 0.532 µM)	0.2 (≈ 0.273 µM)	> 12.5	> 12.5	0.025 (≈ 0.0341 µM)
CC[C@H]1OC(=O)C[C@@H](O)[C@H](C)[C@@H](O[C@@H]2O[C@H](C)[C@@H](O)[C@H](N(C)C)[C@H]2O)[C@@H](CC=O)C[C@@H](C)C(=N\OCc2ccccc2)/C=C/C(C)=C/C1CO (stereo not given in full)	1.56 (≈ 2.22 µM)	> 12.5	> 12.5	3.12 (≈ 4.44 µM)	0.39 (≈ 0.555 µM)	0.78 (≈ 1.11 µM)	0.2 (≈ 0.285 µM)	0.39 (≈ 0.555 µM)	0.2 (≈ 0.285 µM)	> 12.5	1.56 (≈ 2.22 µM)	1.56 (≈ 2.22 µM)	> 12.5	> 12.5	0.2 (≈ 0.285 µM)
CC[C@H]1OC(=O)C[C@@H](O)[C@H](C)[C@@H](O[C@@H]2O[C@H](C)[C@@H](O)[C@H](N(C)C)[C@@H]2O)[C@@H](CCN2CC(C)CC(C)C2)C[C@@H](C)C(=N\OCC(=O)N2CCN(c3ccccc3)CC2)/C=C/C(C)=C/C1CO (stereo not given in full)	0.78 (≈ 0.855 µM)	> 12.5	> 12.5	> 12.5	0.78 (≈ 0.855 µM)	0.39 (≈ 0.428 µM)	0.049 (≈ 0.0537 µM)	0.098 (≈ 0.107 µM)	0.049 (≈ 0.0537 µM)	> 12.5	3.12 (≈ 3.42 µM)	1.56 (≈ 1.71 µM)	> 12.5	> 12.5	4.56 (≈ 5 µM)
CC[C@H]1OC(=O)C[C@@H](O)[C@H](C)[C@@H](O[C@@H]2O[C@H](C)[C@@H](O)[C@H](N(C)C)[C@H]2O)[C@@H](CC=O)C[C@@H](C)C(=N\OC/C=C/c2cnc3ccccc3c2)/C=C/C(C)=C/C1CO (stereo not given in full)	0.049 (≈ 0.0628 µM)	> 12.5	> 12.5	> 12.5	0.049 (≈ 0.0628 µM)	0.098 (≈ 0.126 µM)	0.025 (≈ 0.0321 µM)	0.049 (≈ 0.0628 µM)	0.025 (≈ 0.0321 µM)	> 12.5	0.39 (≈ 0.5 µM)	0.39 (≈ 0.5 µM)	> 12.5	> 12.5	0.049 (≈ 0.0628 µM)
CC[C@H]1OC(=O)C[C@@H](O)[C@H](C)[C@@H](O[C@@H]2O[C@H](C)[C@@H](O)[C@H](N(C)C)[C@H]2O)[C@@H](CC=O)C[C@@H](C)C(=N/OCC#Cc2cnc3ccccc3c2)/C=C/C(C)=C/C1CO (stereo not given in full)	0.098 (≈ 0.126 µM)	> 12.5	> 12.5	> 12.5	0.049 (≈ 0.063 µM)	0.098 (≈ 0.126 µM)	0.025 (≈ 0.0321 µM)	0.025 (≈ 0.0321 µM)	0.025 (≈ 0.0321 µM)	> 12.5	0.39 (≈ 0.501 µM)	0.39 (≈ 0.501 µM)	> 12.5	> 12.5	0.025 (≈ 0.0321 µM)

Reference: ChEMBL document CHEMBL1139006, “Synthesis and in vitro antibiotic activity of 16-membered 9-O-arylalkyloxime macrolides” (2006)
